± gives the expanded uncertainty stated by the source.
Details: Liquid, Vibrating tube method

Compound: CCCCOCC [butyl ethyl ether]
- mass density (283.15 K, 100 kPa): 759.63 ± 0.3 kg/m3
- mass density (283.15 K, 5000 kPa): 764.45 ± 0.33 kg/m3
- mass density (283.15 K, 10000 kPa): 768.96 ± 0.36 kg/m3
- mass density (283.15 K, 15000 kPa): 773.2 ± 0.39 kg/m3
- mass density (283.15 K, 20000 kPa): 777.2 ± 0.42 kg/m3
- mass density (283.15 K, 25000 kPa): 781.05 ± 0.46 kg/m3
- mass density (283.15 K, 30000 kPa): 784.72 ± 0.49 kg/m3
- mass density (283.15 K, 35000 kPa): 788.24 ± 0.52 kg/m3
- mass density (283.15 K, 40000 kPa): 791.65 ± 0.56 kg/m3
- mass density (283.15 K, 45000 kPa): 794.97 ± 0.59 kg/m3
- mass density (283.15 K, 50000 kPa): 798.13 ± 0.63 kg/m3
- mass density (283.15 K, 55000 kPa): 801.25 ± 0.66 kg/m3
- mass density (283.15 K, 60000 kPa): 804.23 ± 0.69 kg/m3
- mass density (283.15 K, 65000 kPa): 807.14 ± 0.72 kg/m3
- mass density (288.15 K, 100 kPa): 754.84 ± 0.3 kg/m3
- mass density (288.15 K, 5000 kPa): 759.82 ± 0.33 kg/m3
- mass density (288.15 K, 10000 kPa): 764.48 ± 0.36 kg/m3
- mass density (288.15 K, 15000 kPa): 768.83 ± 0.39 kg/m3
- mass density (288.15 K, 20000 kPa): 772.96 ± 0.43 kg/m3
- mass density (288.15 K, 25000 kPa): 776.9 ± 0.46 kg/m3
- mass density (288.15 K, 30000 kPa): 780.66 ± 0.49 kg/m3
- mass density (288.15 K, 35000 kPa): 784.28 ± 0.53 kg/m3
- mass density (288.15 K, 40000 kPa): 787.77 ± 0.56 kg/m3
- mass density (288.15 K, 45000 kPa): 791.13 ± 0.6 kg/m3
- mass density (288.15 K, 50000 kPa): 794.37 ± 0.63 kg/m3
- mass density (288.15 K, 55000 kPa): 797.51 ± 0.67 kg/m3
- mass density (288.15 K, 60000 kPa): 800.57 ± 0.7 kg/m3
- mass density (288.15 K, 65000 kPa): 803.54 ± 0.73 kg/m3
- mass density (293.15 K, 100 kPa): 750.02 ± 0.3 kg/m3
- mass density (293.15 K, 5000 kPa): 755.18 ± 0.33 kg/m3
- mass density (293.15 K, 10000 kPa): 759.98 ± 0.36 kg/m3
- mass density (293.15 K, 15000 kPa): 764.45 ± 0.4 kg/m3
- mass density (293.15 K, 20000 kPa): 768.69 ± 0.43 kg/m3
- mass density (293.15 K, 25000 kPa): 772.75 ± 0.46 kg/m3
- mass density (293.15 K, 30000 kPa): 776.62 ± 0.5 kg/m3
- mass density (293.15 K, 35000 kPa): 780.33 ± 0.53 kg/m3
- mass density (293.15 K, 40000 kPa): 783.87 ± 0.57 kg/m3
- mass density (293.15 K, 45000 kPa): 787.34 ± 0.61 kg/m3
- mass density (293.15 K, 50000 kPa): 790.66 ± 0.64 kg/m3
- mass density (293.15 K, 55000 kPa): 793.86 ± 0.67 kg/m3
- mass density (293.15 K, 60000 kPa): 796.96 ± 0.71 kg/m3
- mass density (293.15 K, 65000 kPa): 799.99 ± 0.74 kg/m3
- mass density (298.15 K, 100 kPa): 745.17 ± 0.3 kg/m3
- mass density (298.15 K, 5000 kPa): 750.51 ± 0.33 kg/m3
- mass density (298.15 K, 10000 kPa): 755.44 ± 0.36 kg/m3
- mass density (298.15 K, 15000 kPa): 760.05 ± 0.4 kg/m3
- mass density (298.15 K, 20000 kPa): 764.43 ± 0.43 kg/m3
- mass density (298.15 K, 25000 kPa): 768.58 ± 0.47 kg/m3
- mass density (298.15 K, 30000 kPa): 772.55 ± 0.5 kg/m3
- mass density (298.15 K, 35000 kPa): 776.36 ± 0.54 kg/m3
- mass density (298.15 K, 40000 kPa): 780.01 ± 0.58 kg/m3
- mass density (298.15 K, 45000 kPa): 783.52 ± 0.61 kg/m3
- mass density (298.15 K, 50000 kPa): 786.91 ± 0.65 kg/m3
- mass density (298.15 K, 55000 kPa): 790.19 ± 0.68 kg/m3
- mass density (298.15 K, 60000 kPa): 793.36 ± 0.72 kg/m3
- mass density (298.15 K, 65000 kPa): 796.44 ± 0.75 kg/m3
- mass density (303.15 K, 100 kPa): 740.3 ± 0.3 kg/m3
- mass density (303.15 K, 5000 kPa): 745.81 ± 0.33 kg/m3
- mass density (303.15 K, 10000 kPa): 750.9 ± 0.37 kg/m3
- mass density (303.15 K, 15000 kPa): 755.66 ± 0.4 kg/m3
- mass density (303.15 K, 20000 kPa): 760.15 ± 0.44 kg/m3
- mass density (303.15 K, 25000 kPa): 764.45 ± 0.47 kg/m3
- mass density (303.15 K, 30000 kPa): 768.49 ± 0.51 kg/m3
- mass density (303.15 K, 35000 kPa): 772.35 ± 0.55 kg/m3
- mass density (303.15 K, 40000 kPa): 776.1 ± 0.58 kg/m3
- mass density (303.15 K, 45000 kPa): 779.71 ± 0.62 kg/m3
- mass density (303.15 K, 50000 kPa): 783.18 ± 0.66 kg/m3
- mass density (303.15 K, 55000 kPa): 786.51 ± 0.69 kg/m3
- mass density (303.15 K, 60000 kPa): 789.75 ± 0.72 kg/m3
- mass density (303.15 K, 65000 kPa): 792.89 ± 0.76 kg/m3
- mass density (308.15 K, 100 kPa): 735.39 ± 0.3 kg/m3
- mass density (308.15 K, 5000 kPa): 741.09 ± 0.33 kg/m3
- mass density (308.15 K, 10000 kPa): 746.35 ± 0.37 kg/m3
- mass density (308.15 K, 15000 kPa): 751.24 ± 0.4 kg/m3
- mass density (308.15 K, 20000 kPa): 755.87 ± 0.44 kg/m3
- mass density (308.15 K, 25000 kPa): 760.26 ± 0.47 kg/m3
- mass density (308.15 K, 30000 kPa): 764.45 ± 0.51 kg/m3

Reference: the NIST ThermoML archive (doi:10.1016/j.fluid.2016.02.009)
